For this assay, the target named is T1, Vitronectin receptor αVβ3 (Homo sapiens, UniProt P05106+P06756).
T1 construct: expressed in transfected cells; host or cells: 512P5 cells (plasma membrane preparation)
T1 sequence (P06756 31-889 limits assumed): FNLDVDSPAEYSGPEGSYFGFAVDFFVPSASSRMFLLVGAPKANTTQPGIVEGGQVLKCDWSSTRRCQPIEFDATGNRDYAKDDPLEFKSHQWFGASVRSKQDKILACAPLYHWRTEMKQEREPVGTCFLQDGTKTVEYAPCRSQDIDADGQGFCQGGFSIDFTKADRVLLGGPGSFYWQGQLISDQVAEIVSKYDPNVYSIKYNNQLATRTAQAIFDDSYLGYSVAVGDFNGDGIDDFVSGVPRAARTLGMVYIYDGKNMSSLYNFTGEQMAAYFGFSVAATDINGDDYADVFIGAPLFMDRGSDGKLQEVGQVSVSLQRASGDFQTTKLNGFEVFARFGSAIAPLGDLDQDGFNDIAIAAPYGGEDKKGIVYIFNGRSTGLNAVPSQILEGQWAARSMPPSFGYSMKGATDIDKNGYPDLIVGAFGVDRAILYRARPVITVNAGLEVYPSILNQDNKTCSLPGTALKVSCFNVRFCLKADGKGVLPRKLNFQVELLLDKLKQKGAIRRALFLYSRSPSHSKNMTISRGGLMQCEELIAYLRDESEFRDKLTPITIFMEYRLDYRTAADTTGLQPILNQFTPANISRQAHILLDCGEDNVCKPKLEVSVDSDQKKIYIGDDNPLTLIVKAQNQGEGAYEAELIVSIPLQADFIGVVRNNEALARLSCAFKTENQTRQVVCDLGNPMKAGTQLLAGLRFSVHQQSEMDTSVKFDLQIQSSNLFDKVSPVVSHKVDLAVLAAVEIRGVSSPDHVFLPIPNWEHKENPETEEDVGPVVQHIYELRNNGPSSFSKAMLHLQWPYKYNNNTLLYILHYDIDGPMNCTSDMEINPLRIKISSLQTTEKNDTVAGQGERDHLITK
T1 sequence (P06756 891-1048 partner limits assumed): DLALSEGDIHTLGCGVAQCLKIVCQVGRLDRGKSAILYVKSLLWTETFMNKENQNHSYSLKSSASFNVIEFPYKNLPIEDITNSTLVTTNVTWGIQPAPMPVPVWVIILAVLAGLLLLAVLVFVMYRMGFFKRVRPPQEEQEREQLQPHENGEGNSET
T1 sequence (P05106 27-788): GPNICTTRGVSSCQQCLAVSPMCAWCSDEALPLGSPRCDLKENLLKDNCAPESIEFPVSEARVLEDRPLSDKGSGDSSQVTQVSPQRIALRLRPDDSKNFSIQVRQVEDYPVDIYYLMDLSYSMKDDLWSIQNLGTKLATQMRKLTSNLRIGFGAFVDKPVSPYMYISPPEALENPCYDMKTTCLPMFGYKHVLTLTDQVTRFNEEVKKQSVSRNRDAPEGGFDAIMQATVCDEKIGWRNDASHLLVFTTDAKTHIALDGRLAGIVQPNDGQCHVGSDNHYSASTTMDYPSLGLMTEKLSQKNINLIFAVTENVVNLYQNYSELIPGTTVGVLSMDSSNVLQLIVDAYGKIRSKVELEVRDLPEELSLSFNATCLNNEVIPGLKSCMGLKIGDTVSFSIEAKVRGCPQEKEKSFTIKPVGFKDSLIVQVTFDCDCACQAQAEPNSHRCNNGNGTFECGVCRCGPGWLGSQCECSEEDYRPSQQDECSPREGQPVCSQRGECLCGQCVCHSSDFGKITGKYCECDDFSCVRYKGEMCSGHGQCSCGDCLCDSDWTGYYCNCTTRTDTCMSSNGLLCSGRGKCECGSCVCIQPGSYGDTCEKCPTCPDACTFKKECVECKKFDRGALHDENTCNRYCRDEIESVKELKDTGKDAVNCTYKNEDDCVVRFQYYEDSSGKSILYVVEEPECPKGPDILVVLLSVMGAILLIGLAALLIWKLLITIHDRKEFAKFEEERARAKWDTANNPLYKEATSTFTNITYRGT
Put plainly: Vitronectin Receptor αVβ3 Binding Assay. As to conditions: read-out: VnR (IC50μM).
For `C#CCCC(=O)N[C@@H](CNC(=O)c1ccc(OCCNC(=N)N)cc1O)C(=O)O` [Example 197, (2S)-3-{[4-(2-{[amino(imino)methyl]amino}ethoxy)-2-hydroxybenzoyl]amino}-2-(pent-4-ynoylamino)propanoic acid], the IC50 is above 1 µM.
For `N=C(N)NCCOc1ccc(C(=O)NC[C@H](NC(=O)C2CCCCC2)C(=O)O)c(O)c1` [Example 198, (2S)-3-{[4-(2-{[amino(imino)methyl]amino}ethoxy)-2-hydroxybenzoyl]amino}-2-[(cyclohexylcarbonyl)amino]propanoic acid], the IC50 was above 1 µM.
With `N=C(N)NCCOc1ccc(C(=O)NC[C@H](NC(=O)Cc2ccccc2)C(=O)O)c(O)c1` [Example 199, (2S)-3-{[4-(2-{[amino(imino)methyl]amino}ethoxy)-2-hydroxybenzoyl]amino}-2-[(2-phenylacetyl)amino]propanoic acid], the IC50 was determined as 14.7 µM.
Regarding `N=C(N)NCCOc1ccc(C(=O)NC[C@H](NC(=O)CCc2ccccc2)C(=O)O)c(O)c1` [Example 200, (2S)-3-{[4-(2-{[amino(imino)methyl]amino}ethoxy)-2-hydroxybenzoyl]amino}-2-[(3-phenylpropanoyl)amino]propanoic acid], the IC50 was above 1 µM.
In the case of `N=C(N)NCCOc1ccc(C(=O)NC[C@H](NC(=O)CC2CCCCC2)C(=O)O)c(O)c1` [Example 201, (2S)-3-{[4-(2-{[amino(imino)methyl]amino}ethoxy)-2-hydroxybenzoyl]amino}-2-[(2-cyclohexylacetyl)amino]propanoic acid], the IC50 came out at 13.2 µM.
Next, `N=C(N)NCCOc1ccc(C(=O)NC[C@H](NC(=O)/C=C/c2ccccc2)C(=O)O)c(O)c1` [Example 202, (2S)-3-{[4-(2-{[amino(imino)methyl]amino}ethoxy)-2-hydroxybenzoyl]amino}-2-{[(E)-3-phenylprop-2-enoyl]amino}propanoic acid]: above 1 µM.
In the case of `N=C(N)NCCOc1ccc(C(=O)NC[C@H](NC(=O)c2ccccc2Cl)C(=O)O)c(O)c1` [Example 203, (2S)-3-{[4-(2-{[amino(imino)methyl]amino}ethoxy)-2-hydroxybenzoyl]amino}-2-[(2-chlorobenzoyl)amino]propanoic acid], the IC50 came to 14.1 µM.
On to `Cc1ccccc1C(=O)N[C@@H](CNC(=O)c1ccc(OCCNC(=N)N)cc1O)C(=O)O` [Example 204, (2S)-3-{[4-(2-{[amino(imino)methyl]amino}ethoxy)-2-hydroxybenzoyl]amino}-2-[(2-methylbenzoyl)amino]propanoic acid], for which the IC50 was determined as 7.48 µM.
As to `COc1ccccc1C(=O)N[C@@H](CNC(=O)c1ccc(OCCNC(=N)N)cc1O)C(=O)O` [Example 205, (2S)-3-{[4-(2-{[amino(imino)methyl]amino}ethoxy)-2-hydroxybenzoyl]amino}-2-[(2-methoxybenzoyl)amino]propanoic acid], the IC50 was above 1 µM.
On to `N=C(N)NCCOc1ccc(C(=O)NC[C@H](NC(=O)c2ccc(Cl)cc2)C(=O)O)c(O)c1` [Example 206, (2S)-3-{[4-(2-{[amino(imino)methyl]amino}ethoxy)-2-hydroxybenzoyl]amino}-2-[(4-chlorobenzoyl)amino]propanoic acid], for which the IC50 is above 1 µM.
Regarding `Cc1ccc(C(=O)N[C@@H](CNC(=O)c2ccc(OCCNC(=N)N)cc2O)C(=O)O)cc1` [Example 207, (2S)-3-{[4-(2-{[amino(imino)methyl]amino}ethoxy)-2-hydroxybenzoyl]amino}-2-[(4-methylbenzoyl)amino]propanoic acid], the IC50 is above 1 µM.
In the case of `COc1ccc(C(=O)N[C@@H](CNC(=O)c2ccc(OCCNC(=N)N)cc2O)C(=O)O)cc1` [Example 208, (2S)-3-{[4-(2-{[amino(imino)methyl]amino}ethoxy)-2-hydroxybenzoyl]amino-}-2-[(4-methoxybenzoyl)amino]propanoic acid], the IC50 is above 1 µM.
Take `N=C(N)NCCOc1ccc(C(=O)NC[C@H](NC(=O)c2cccnc2)C(=O)O)c(O)c1` [Example 209, (2S)-3-{[4-(2-{[amino(imino)methyl]amino}ethoxy)-2-hydroxybenzoyl]amino}-2-[(pyridin-3-ylcarbonyl)amino]propanoic acid]: the IC50 was above 1 µM.
`N=C(N)NCCOc1ccc(C(=O)NC[C@H](NC(=O)c2ccncc2)C(=O)O)c(O)c1` [Example 210, (2S)-3-{[4-(2-{[amino(imino)methyl]amino}ethoxy)-2-hydroxybenzoyl]amino}-2-(isonicotinoylamino)propanoic acid]: the IC50 is above 1 µM.
For `Cc1cc(C(=O)N[C@@H](CNC(=O)c2ccc(OCCNC(=N)N)cc2O)C(=O)O)c(C)o1` [Example 211, (2S)-3-{[4-(2-{[amino(imino)methyl]amino}ethoxy)-2-hydroxybenzoyl]amino}-2-[(2,5-dimethyl-3-furoyl)amino]propanoic acid], the IC50 was above 1 µM.
`N=C(N)NCCOc1ccc(C(=O)NC[C@H](NC(=O)c2ccccc2Br)C(=O)O)c(O)c1` [Example 212, (2S)-3-{[4-(2-{[amino(imino)methyl]amino}ethoxy)-2-hydroxybenzoyl]amino-}-2-[(2-bromobenzoyl)amino]propanoic acid]: the IC50 was 13.1 µM.
For the compound `N=C(N)NCCOc1ccc(C(=O)NC[C@H](NC(=O)c2ccc(Br)cc2)C(=O)O)c(O)c1` [Example 213, (2S)-3-{[4-(2-{[amino(imino)methyl]amino}ethoxy)-2-hydroxybenzoyl]amino}-2-[(4-bromobenzoyl)amino]propanoic acid], the IC50 is above 1 µM.
For `Cc1cccc(C(=O)N[C@@H](CNC(=O)c2ccc(OCCNC(=N)N)cc2O)C(=O)O)c1C` [Example 214, (2S)-3-{[4-(2-{[amino(imino)methyl]amino}ethoxy)-2-hydroxybenzoyl]amino}-2-[(2,3-dimethylbenzoyl)amino]propanoic acid], the IC50 amounted to 2.31 µM.
In the case of `N=C(N)NCCOc1ccc(C(=O)NC[C@H](NC(=O)c2cccc(Cl)c2)C(=O)O)c(O)c1` [Example 215, (2S)-3-{[4-(2-{[amino(imino)methyl]amino}ethoxy)-2-hydroxybenzoyl]amino}-2-[(3-chlorobenzoyl)amino]propanoic acid], the IC50 was above 1 µM.
Regarding `CC(C)(C)COC(=O)N[C@@H](CNC(=O)c1ccc(OCCNC(=O)NCc2ccccc2)cc1O)C(=O)O` [Example 219, (2S)-3-{[4-(2-{[(benzylamino)carbonyl]amino}ethoxy)-2-hydroxy-benzoyl]amino}-2-{[(neopentyloxy)carbonyl]amino}propanoic acid], the IC50 worked out at 1.8 µM.
Next, `O=C(NCCOc1ccc(C(=O)NC[C@H](NC(=O)OCc2ccccc2)C(=O)O)c(O)c1)NCc1ccccc1` [Example 220, (2S)-3-{[4-(2-{[(benzylamino)carbonyl]amino}ethoxy)-2-hydroxybenzoyl]amino}-2-{[(benzyloxy)carbonyl]amino}propanoic acid]: 8.8 µM; `COC(=O)N[C@@H](CNC(=O)c1ccc(OCCNC(=O)NCc2ccccc2)cc1O)C(=O)O` [Example 221, (2S)-3-{[4-(2-{[(benzylamino)carbonyl]amino}ethoxy)-2-hydroxybenzoyl]amino}-2-[(methoxycarbonyl)amino]propanoic acid]: 22.8 µM.

For the origin of these results see patent US20030186967A1, “Acylresorcinol derivatives are selective vitronectin receptor inhibitors” (American Home Products Corporation, priority 1998, published 2003).
